Test results as given in ChEMBL document CHEMBL1201862, “PubChem BioAssay data set” (2004).
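48-hour exposure; five concentrations; linearly interpolated endpoints. GI50 = concentration required for 50% inhibition of growth.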 Activity calls are given as the source filed them. Cut-off read from the data, not from the text of the source: active = GI50 up to about 1.1 µM and inactive = higher.

Tests used:
Assay in all cases: NCI anticancer screen, dose series, 48 h
NCI-H226 = system: NCI-H226
Malme-3M = system: Malme-3M
EKVX = system: EKVX
NCI-H460 = system: NCI-H460
MCF7 = system: MCF7
UACC-257 = system: UACC-257
T47D = system: T47D
RXF 393 = system: RXF 393
MDA-MB-435 = system: MDA-MB-435
NCI-H522 = system: NCI-H522
UO-31 = system: UO-31
NCI/ADR-RES = system: NCI/ADR-RES
OVCAR-3 = system: OVCAR-3
DU-145 = system: DU-145
COLO 205 = system: COLO 205
MDA-MB-231 = system: MDA-MB-231

Structure (SMILES)	GI50 (NCI-H226)	GI50 (Malme-3M)	GI50 (EKVX)	GI50 (NCI-H460)	GI50 (MCF7)	GI50 (UACC-257)	GI50 (T47D)	GI50 (RXF 393)	GI50 (MDA-MB-435)	GI50 (NCI-H522)	GI50 (UO-31)	GI50 (NCI/ADR-RES)	GI50 (OVCAR-3)	GI50 (DU-145)	GI50 (COLO 205)	GI50 (MDA-MB-231)
O=C(/C=c1\oc(=O)/c(=C/C(=O)c2ccc(Cl)cc2)oc1=O)c1ccc(Cl)cc1	> 100 µM (inactive)	51.3 µM (inactive)	> 100 µM (inactive)	> 100 µM (inactive)	> 100 µM (inactive)	> 100 µM (inactive)	53.7 µM (inactive)	60.7 µM (inactive)	> 100 µM (inactive)	19.7 µM (inactive)	> 100 µM (inactive)	> 100 µM (inactive)	49.9 µM (inactive)	> 100 µM (inactive)	> 100 µM (inactive)	> 100 µM (inactive)
C=C1C(C(=O)OC)[C@H]1C(=O)OC (stereo not given in full)	> 100 µM (inactive)		> 100 µM (inactive)	> 100 µM (inactive)	> 100 µM (inactive)	> 100 µM (inactive)	> 100 µM (inactive)	> 100 µM (inactive)	> 100 µM (inactive)	> 100 µM (inactive)	> 100 µM (inactive)	> 100 µM (inactive)	> 100 µM (inactive)	> 100 µM (inactive)	> 100 µM (inactive)	> 100 µM (inactive)
CS(C)(=O)=N/C=C\C(=O)C(Cl)(Cl)Cl	> 100 µM (inactive)	> 100 µM (inactive)	> 100 µM (inactive)	> 100 µM (inactive)	> 100 µM (inactive)	> 100 µM (inactive)	> 100 µM (inactive)	> 100 µM (inactive)	> 100 µM (inactive)	36.1 µM (inactive)	> 100 µM (inactive)	> 100 µM (inactive)	> 100 µM (inactive)	> 100 µM (inactive)	> 100 µM (inactive)	> 100 µM (inactive)
O=C1C=C(Cl)C(=O)C(c2ccc(Cl)cc2)=C1	20.2 µM (inactive)	20.3 µM (inactive)	14.8 µM (inactive)	79.6 µM (inactive)	16.3 µM (inactive)	18.6 µM (inactive)	13.7 µM (inactive)	18.4 µM (inactive)	17.9 µM (inactive)	5.05 µM (inactive)	14.8 µM (inactive)	26.4 µM (inactive)	16.6 µM (inactive)	22 µM (inactive)	16.4 µM (inactive)	17.1 µM (inactive)
NC(=S)N/N=C/c1c[nH]c2ccccc12	> 100 µM (inactive)	> 100 µM (inactive)	2.86 µM (inactive)	> 100 µM (inactive)	> 100 µM (inactive)	> 100 µM (inactive)	99.3 µM (inactive)	> 100 µM (inactive)	> 100 µM (inactive)	52.5 µM (inactive)	> 100 µM (inactive)	> 100 µM (inactive)	> 100 µM (inactive)	> 100 µM (inactive)	> 100 µM (inactive)	> 100 µM (inactive)
CC(C)(CN1CCCCC1)C(/C=C/c1ccc(Cl)c(Cl)c1)=N\NC(=O)N/N=C(/C=C/c1ccc(Cl)c(Cl)c1)C(C)(C)CN1CCCCC1	2.3 µM (inactive)	1.55 µM (inactive)	1.64 µM (inactive)	1.35 µM (inactive)	1.54 µM (inactive)	1.63 µM (inactive)	2.05 µM (inactive)	0.659 µM (active)	1.31 µM (inactive)	1.82 µM (inactive)	4.14 µM (inactive)	1.73 µM (inactive)	1.56 µM (inactive)	1.85 µM (inactive)	1.64 µM (inactive)	2.06 µM (inactive)
CC(=O)OCc1cc(CCC(=O)NCCNc2c3ccccc3nc3ccccc23)cc(COC(C)=O)c1O[Si](C)(C)C(C)(C)C	2.19 µM (inactive)	6.25 µM (inactive)	13.4 µM (inactive)	3.72 µM (inactive)	2.2 µM (inactive)	4.36 µM (inactive)	1.97 µM (inactive)	3.48 µM (inactive)	2.97 µM (inactive)	5.5 µM (inactive)	12.9 µM (inactive)	20.7 µM (inactive)	2 µM (inactive)	12.1 µM (inactive)	4.35 µM (inactive)	3.37 µM (inactive)
CCOC(=O)/C=C(/C(=O)OCC)n1ccc(=O)[nH]c1=O	6 µM (inactive)	1.9 µM (inactive)	4.86 µM (inactive)	14.6 µM (inactive)	4.19 µM (inactive)	12.6 µM (inactive)	3.4 µM (inactive)	4.21 µM (inactive)	10.8 µM (inactive)	0.726 µM (active)	14 µM (inactive)	15.5 µM (inactive)	3.59 µM (inactive)	15.5 µM (inactive)	1.65 µM (inactive)	10.8 µM (inactive)
COc1ccc(C2CC(c3ccc4ccccc4c3O)=NN2)cc1OC (stereo not given)	> 100 µM (inactive)	61.8 µM (inactive)		34.6 µM (inactive)	32.7 µM (inactive)	57.8 µM (inactive)	45 µM (inactive)	74.1 µM (inactive)	27 µM (inactive)	40.1 µM (inactive)	46.2 µM (inactive)	32.7 µM (inactive)	33.1 µM (inactive)	77.6 µM (inactive)	38.7 µM (inactive)	25.2 µM (inactive)
O=C(NC(=S)Nc1ccc2c(c1)Sc1ccccc1O2)c1ccc([N+](=O)[O-])cc1	> 100 µM (inactive)	> 100 µM (inactive)	> 100 µM (inactive)	> 100 µM (inactive)	> 100 µM (inactive)	> 100 µM (inactive)	> 100 µM (inactive)	> 100 µM (inactive)	> 100 µM (inactive)	> 100 µM (inactive)	> 100 µM (inactive)	> 100 µM (inactive)	> 100 µM (inactive)	> 100 µM (inactive)	> 100 µM (inactive)	> 100 µM (inactive)
CC(=O)OCC(C)C1=C(O)C(=O)C2(C)C/C=C(/C)CC/C=C(\C)CCC(O)C(C)CCC12 (stereo not given)	17.6 µM (inactive)	17.4 µM (inactive)	16.4 µM (inactive)	14.7 µM (inactive)	24.9 µM (inactive)	18.6 µM (inactive)	1.94 µM (inactive)	12.3 µM (inactive)	17.5 µM (inactive)	17.3 µM (inactive)	14.2 µM (inactive)	21.1 µM (inactive)	15.1 µM (inactive)	17.9 µM (inactive)	17.1 µM (inactive)	16.3 µM (inactive)
CC(NNC(=O)c1cc[n+]([BH2-]C#N)cc1)c1ccccc1 (stereo not given)	> 100 µM (inactive)	> 100 µM (inactive)	> 100 µM (inactive)	> 100 µM (inactive)	> 100 µM (inactive)	> 100 µM (inactive)	> 100 µM (inactive)	> 100 µM (inactive)	> 100 µM (inactive)	> 100 µM (inactive)	> 100 µM (inactive)	> 100 µM (inactive)	> 100 µM (inactive)	> 100 µM (inactive)	> 100 µM (inactive)	> 100 µM (inactive)
CSC1=C(C(=O)N(COCC[Si](C)(C)C)c2ccccc2Br)CCC(C(C)(C)C)C1 (stereo not given)	13.9 µM (inactive)	16.6 µM (inactive)	13.8 µM (inactive)	13.6 µM (inactive)	10.6 µM (inactive)	9.77 µM (inactive)	6.81 µM (inactive)	9.79 µM (inactive)	17.9 µM (inactive)	7.78 µM (inactive)	12.6 µM (inactive)	13.7 µM (inactive)	10.7 µM (inactive)	22.4 µM (inactive)	12.4 µM (inactive)	10.3 µM (inactive)
CCOC(=O)/C1=C(\C)N(c2ccc(C)cc2)C(=O)c2ccccc2C(=O)c2c(OC(C)=O)ccc(OC(C)=O)c21	14.6 µM (inactive)	28.1 µM (inactive)		18.3 µM (inactive)	26.1 µM (inactive)	21.8 µM (inactive)	13.7 µM (inactive)	22.2 µM (inactive)	15.3 µM (inactive)	20.7 µM (inactive)	38.5 µM (inactive)	19.2 µM (inactive)	16.5 µM (inactive)	31.8 µM (inactive)	13.5 µM (inactive)	12.9 µM (inactive)
CN1CCc2c(sc3ncn(N)c(=N)c23)C1	78.9 µM (inactive)	> 100 µM (inactive)	> 100 µM (inactive)	> 100 µM (inactive)	> 100 µM (inactive)	> 100 µM (inactive)	> 100 µM (inactive)	> 100 µM (inactive)	> 100 µM (inactive)	45.7 µM (inactive)		> 100 µM (inactive)	> 100 µM (inactive)	> 100 µM (inactive)		> 100 µM (inactive)
CCN(CC)CCc1c2c(nc3ccccc13)C(=O)c1cccnc1C2=O	4.68 µM (inactive)	2.02 µM (inactive)	2.89 µM (inactive)		0.345 µM (active)	1.38 µM (inactive)	1.96 µM (inactive)	2.37 µM (inactive)	1.93 µM (inactive)	0.731 µM (active)	1.57 µM (inactive)	4.28 µM (inactive)	0.055 µM (active)	0.344 µM (active)	1.58 µM (inactive)	1.83 µM (inactive)
COc1cc2nc(-c3c(F)cccc3F)n(Cc3c(F)cccc3F)c2cc1Cc1c(F)cccc1F	> 28.6 µM (inactive)	> 24.8 µM (inactive)	16.9 µM (inactive)	15.3 µM (inactive)	3.47 µM (inactive)		4.05 µM (inactive)	1.55 µM (inactive)	8.59 µM (inactive)	10 µM (inactive)	9.1 µM (inactive)	> 100 µM (inactive)	4.73 µM (inactive)	> 100 µM (inactive)	> 100 µM (inactive)	27.7 µM (inactive)
